Results as given in publication PMC9544596 (Journal of Clinical Pharmacology, 2022).

What was measured:
Enterococcus spp. = assay: Vancomycin MIC of cultured clinical isolates; format: cell-based
[1] = Population pharmacokinetic model of vancomycin

- MIC50 (Enterococcus spp.; Enterococcus, read-out: MIC50 (min-max)): 1 µg/mL
- MIC50 (min-max) (Enterococcus spp.; patients without shock, 6 isolates): 1 µg/mL
- MIC50 (min-max) (Enterococcus spp.; septic shock patients, 5 isolates): 1 µg/mL
- CL, bootstrap of final model estimate ([1]; 1000 bootstrap replicates): 1.23 L/h
- Vd, bootstrap of final model estimate ([1]; 1000 bootstrap replicates): 66.51 L
- θ1, bootstrap of final model estimate ([1]; 1000 bootstrap replicates): 1.00
- Vd, final model estimate ([1]; Thai GFR not indexed to BSA final model): 67.46 L
Structure (SMILES): CN[C@H](CC(C)C)C(=O)N[C@H]1C(=O)N[C@@H](CC(N)=O)C(=O)N[C@H]2C(=O)N[C@H]3C(=O)N[C@H](C(=O)N[C@H](C(=O)O)c4cc(O)cc(O)c4-c4cc3ccc4O)[C@H](O)c3ccc(c(Cl)c3)Oc3cc2cc(c3O[C@@H]2O[C@H](CO)[C@@H](O)[C@H](O)[C@H]2O[C@H]2C[C@](C)(N)[C@H](O)[C@H](C)O2)Oc2ccc(cc2Cl)[C@H]1O [vancomycin]
